# Patent US5962533A, “Hydroxy polyamines” (priority 1996, dated 1999)
# “And” between values parts separate entries of the source, which are not always exact repeats. Equal entries are not always repeated. Where two headings read alike, the source gives them in different places.
# What was measured:
# [1] = system: polyamine transport apparatus; assay: Competition with radiolabeled spermidine for uptake into L1210 cells (Ki); assay type: cell-based, Murine
# Method: The same cell line was utilized to evaluate the tetraamines's competition with radiolabeled spermidine for the polyamine uptake apparatus (Ki). The Ki values here are the concentrations of drugs required to inhibit the uptake of radioactive spermidine transport by 50% (Table 1).
# Uptake Determinations. The polyamine derivatives were studied for their ability to compete with [^3 H]SPD or [^14 C]SPD for uptake into L1210 leukemia cells in vitro. Cell suspensions were incubated in 1 ml of RPMI-1640 containing 1, 2, 4, 6, 8 and 10 μm radiolabeled SPD alone or with the additional presence of 10, 25 and 50 μm polyamine analogue for 20 minutes at 37° C. At the end of the incubation period, tubes were centrifuged at 900 g for 5 minutes at 0-4° C. The pellet was washed twice with 5 ml of cold RPMI-1640 containing 1 mm SPD, dissolved in 200 μl of 1N NaOH at 60° C. for 1 hour, and neutralized with 1N HCl. The material was transferred to a vial for scintillation counting.
# [2] = system: castor oil-induced diarrhea; assay: Castor oil-induced diarrhea; assay type: in vivo, rat; conditions: rat; for stool output / diarrhea during 6 hour assay (FIG. 8): subcutaneous injection 30 minutes before castor oil 5 ml/kg
# Excerpt: Castor Oil-Induced Diarrhea. Male Sprague-Dawley rats (350-400 g) were fasted overnight in hanging wire cages and allowed free access to water.
# [3] = Chronic toxicity, one dose per day for five days; assay type: in vivo; conditions: mouse, in vivo
# Method: In the chronic toxicity regimen, mice were administered the polyamine analogue as one dose per day for five days. Appetite, weight and overall physical appearance were recorded at the time of each injection. After the treatment regimen had been completed, the animals were observed an additional 10 days. The chronic toxicity dosing regimen was set up so that at least one test group was presented with a high fraction of lethalities.
# L1210 cells [4] = assay: L1210 growth inhibition, IC50 determinations; assay type: cell-based, Murine; conditions: L1210 cells
# Method: IC50 Determinations. Cells were grown in 25 cm^2 tissue culture flasks in a total volume of 10 ml. Cultures were treated while in logarithmic growth (0.5-1.0×10^5 cells/ml) with the polyamine derivative diluted in sterile water and filtered through a 0.2 μm filter.
# After the indicated time periods, cells were removed from the incubator for counting. Cell number was determined by electronic particle counting (Model ZF coulter counter, Coulter Electronics, Hialeah, Fla.) and confirmed periodically with hemocytometer measurements.
# The percentage of control growth was determined as follows: [formula]
# [5] = Acute toxicity, single intraperitoneal injection; conditions: mouse, in vivo, ip
# L1210 cells [6] = assay: Polyamine pool analysis in analogue-treated L1210 cells (HPLC); assay type: cell-based, Murine
# Method: Polyamine Pool Analysis. While in logarithmic growth, cells were treated with the polyamine derivatives. […] Each supernatant was frozen at -20° C. until analysis by HPLC.
# NMDA receptor = assay: NMDA assay: specific [3H]MK-801 binding to washed rat cerebral cortical membranes; conditions: 100 μm L-glutamate, 100 μm glycine, 2 nm [3H]MK-801
# Excerpt: FIG. 4 depicts the effects of (HO)2 DEHSPM and DEHSPM on the NMDA receptor (MK-801 binding). Each data point represents the mean ±s.d. of three experiments. Each experiment was, in turn, performed in triplicate. "100% activity" is defined as the amount of specific MK-801 binding to washed rat cerebral cortical membranes in the presence of saturating concentrations of coagonists (100 μm L-glutamate, 100 μm glycine) and 2 nm [^3 H]MK-801.
# NMDA Assay. The procedure for measuring specific binding of [^3 H]MK-801 to the N-methyl-D-aspartate receptor complex was a modification of the method of Ransom and Stec [J. Neurochem., Vol. 51, pages 830-836 (1988)]. Cerebral cortices from young male Sprague-Dawley rats (200-300 g) were homogenized with 10 volumes ice-cold 0.32M sucrose using a motor-driven glass/Teflon homogenizer. The homogenate was centrifuged at 1,000 g for 10 minutes and the pellet was discarded. The supernatant was then centrifuged at 18,000 g for 20 minutes. The 18,000 g pellet was then resuspended in 10 volumes buffer A (5 mm Tris-HCl, pH 7.7) at 4° C., homogenized using high-intensity ultrasound and centrifuged at 8,000 for 20 minutes. The supernatant and upper buffy coat of the pellet were combined and centrifuged at 50,000 g for 20 minutes. The pellet was then resuspended in 10 volumes buffer A and homogenized using high-intensity ultrasound. These resuspended membranes were then centrifuged at 50,000 g, discarding the supernatant. The membranes were washed in this manner an additional three times and stored as a frozen suspension at -80° C. for at least 18 hours, but no longer than 2 weeks before use.
# For binding experiments, frozen membranes were thawed, pelleted at 50,000 g for 20 minutes and washed as described above, except that 20 volumes of buffer A were used for resuspension, for a total of four times. The final pellet was resuspended in buffer B (5 mm Tris-HCl, pH 7.5) at 23° C. The binding assay mixture was 1.00 ml buffer B containing 200-300 μg membrane protein, 100 μm L-glutamate, 100 μm glycine, 2 nm [^3 H]MK-801 and tetraamine at the following concentrations: 0 ("100%+L-glu,+gly-Control") and 0.05, 0.1, 0.5, 1, 5, 10, 50, 100, 500 and 1,000 μm. Non-specific binding was determined using 100 μm MK-801.
# Binding assays were performed in triplicate at 23° C. for one hour and were terminated by filtration through Whatman GF/B glass fiber filters followed by three 4.0 ml rinses of ice-cold buffer B using a Brandel M-48 Cell Harvester.
# [7] = Metabolism of (HO)2 DEHSPM v. DEHSPM in mouse liver and kidney (HPLC); assay type: in vivo
# Method: Metabolism of (HO)2 DEHSPM v. DEHSPM in Mouse Liver and Kidney. […] In ease case, animals were sacrificed for HPLC analysis one day after the final dose.
# HPLC Analysis of Polyamines. Various tissues including the liver and kidney were prepared for HPLC analysis of polyamine content. In order to facilitate their handling, the organs were submerged in liquid nitrogen. Once frozen and weighed, the tissues were homogenized (Tissuemizer, Tekmar, Cincinnati, Ohio) in 1.2N perchloric acid (containing 1,7-diaminoheptane internal standard) in a 1:20 (w/v) ratio. The tissue homogenates were then freeze-thawed three times and stored in a -70° C. freezer until HPLC analysis was performed.
# Each chromatographic assay included calibration standards which were treated in the same manner as the samples. […] The concentration of each polyamine was calculated from the peak area by calibration curves obtained by non-weighted least squares linear regression. Peak area and linear regression calculations were performed on a Macintosh Centris 650 with Rainin Dynamax HPLC Method Manager software (Rainin Instrument Co., Ridgefield, N.J.).
# [8] = mice, three weeks after a seven day schedule; cited from earlier work
# [9] = Protonation state at physiological pH assumed from measured pKa values; assay type: physicochemical; conditions: physiological pH of 7.2
# Method: All of the non-aromatic, non-trifluoroethylated tetraamines are largely in the form of the tetracation at the physiological pH of 7.2. The spermine analogues (13-16 and 34) and the homospermine analogues and homologues (18-26, 29 and 31-33) should be 85 and 97%, respectively, in the form of the tetracations. The norspermine analogues (9-12) should be at least 74% in the form of the tetracations. […] Thus, the calculation of atomic charges and conformational search of these analogues were carried out based on the anticipated protonated structures.
# [10] = triamine analogues, bioassay results not in model data set, read-out: Ki, Actual (Table 2)
# [11] = 24 h after regimen, normalized for 30 g mouse
# [12] = liver and kidneys, 24 h after regimen, 30 g mouse
# [13] = mouse, one day after subchronic equimolar i.p. regimen
# [14] = tetraamine analogues, L1210 cells, radiolabeled spermidine uptake, read-out: Ki, actual (Table 1)
smiles,measurement,setting,value
CCNCCCCNCCCNCC [DESPD],Ki,[1]; [10],19.3 µM
"CCNCCCCNCCCCNCCCCNCC [DEHSPM, Diethylhomospermine]",prevention of castor oil-induced diarrhea,"[2]; 5 mg/kg subcutaneous, six hour assay",effectively prevented the onset of diarrheal stooling
same,stool output / diarrhea during 6 hour assay (FIG. 8),[2],virtually no stool output
same,greater chronic toxicity of DEHSPM v. DENSPM,[3],4-5 fold
same,LD50,[3]; read-out: chronic LD50,38 mg/kg
same,IC50,"L1210 cells [4]; 96 h, read-out: IC50 96 h",0.05 to 0.09 µM
same,IC50,"L1210 cells [4]; Mus musculus, L1210, 48 h, 48 h, read-out: IC50 48 h",0.2 µM
same,IC50,"L1210 cells [4]; Mus musculus, L1210, 96 h, 96 h, read-out: IC50 96 h",0.07 µM
same,LD50,[5],325 mg/kg
same,SPM level relative to untreated controls,"L1210 cells [6]; L1210 cells, 10 μm analogue, 48 hours, control = 100%",60% and 61%
same,N-deethylation by L1210 cells,L1210 cells [6]; in vitro conditions,do not N-deethylate
same,concentration showing agonist activity on MK-801 binding,NMDA receptor,0.5-1.0 μm
same,concentrations of maximal antagonism of MK-801 binding,NMDA receptor,≥ 50 μm
same,concentrations showing marked antagonist activity on MK-801 binding,NMDA receptor,above 5 μm
same,"% of total dose present as total drug + metabolite, Kidneys",[7]; [11],9.67%
same,"% of total dose present as total drug + metabolite, Liver",[7]; [11],24.15%
same,"% of total dose present as unmetabolized parent drug, Kidneys",[7]; [11],3.14 ± 1.37%
same,"% of total dose present as unmetabolized parent drug, Liver",[7]; [11],1.84 ± 0.53%
same,"Amount of total dose present as dideethylated metabolite HSPM/(HO)2 HSPM, Kidneys",[7]; [11],0.408 µmol
same,"Amount of total dose present as dideethylated metabolite HSPM/(HO)2 HSPM, Liver",[7]; [11],1.394 µmol
same,"Amount of total dose present as total drug + metabolite, Kidneys",[7]; [11],0.604 µmol
same,"Amount of total dose present as total drug + metabolite, Liver",[7]; [11],1.509 µmol
same,"Amount of total dose present as unmetabolized parent drug, Kidneys",[7]; [11],0.196 µmol
same,"Amount of total dose present as unmetabolized parent drug, Liver",[7]; [11],0.115 µmol
same,"% of total dose present as total drug + metabolite, Both Tissues",[7]; [12],33.8% and 33.82%
same,"% of total dose present as unmetabolized parent drug, Both Tissues",[7]; [12],5.0% and 4.98%
same,"Amount of total dose present as dideethylated metabolite HSPM/(HO)2 HSPM, Both Tissues",[7]; [12],1.80 µmol and 1.802 µmol
same,"Amount of total dose present as total drug + metabolite, Both Tissues",[7]; [12],2.11 µmol and 2.113 µmol
same,"Amount of total dose present as unmetabolized parent drug, Both Tissues",[7]; [12],0.313 µmol and 0.311 µmol
same,level of unchanged drug in kidney,[7]; [13],409±178 nmol/g wet weight
same,level of unchanged drug in liver,[7]; [13],43.9±12.6 nmol/g wet weight
same,drug administered remaining in liver and kidney as drug or metabolites,[8],35%
same,share of drug remaining in the animal that is in the form of HSPM,[8],90%
same,Ki,"[1]; L1210 cells, estimated from Lineweaver-Burke plots, read-out: Ki, [3H]-spermidine transport",1.4 µM
same,Ki,[1]; [14],1.4 µM
CNCCCCNCCCCNCCCCNC [DMHSPM],Ki,[1]; [14],0.97 µM
CCNCCCCNCCCN [N^8 -MESPD],Ki,[1]; [10],7 µM
"C(CCNC1CCNCC1)CNC1CCNCC1 [PIP(3,4,3)]",Ki,[1]; [14],60.5 µM
C(CCNCCCCNC12CC3CC(CC(C3)C1)C2)CNCCCCNC12CC3CC(CC(C3)C1)C2 [BAHSPM],Ki,[1]; [14],2 µM
CCNCCCNCCCNCC [DENSPD],Ki,[1]; [10],200 µM
"CCNCCCCNCCCCCNCCCCNCC [DE(4,5,4)]",Ki,[1]; [14],6 µM
CCCNCCCNCCCCNCCCNCCC [DPSPM],Ki,[1]; [14],2.3 µM
"C(CCNCC1CCNCC1)CNCC1CCNCC1 [PIP(4,4,4)]",Ki,[1]; [14],4.9 µM
CCNCCCNCCCCNCCCNCC [DESPM],Ki,[1]; [14],1.6 µM
"CCNCCCCNCCCCNCCCNCC [DE(3,4,4)]",Ki,[1]; [14],8 µM
CC(C)NCCCCNCCCCNCCCCNC(C)C [DIPHSPM],Ki,[1]; [14],8.1 µM
CNCCCNCCCNCCCNC [DMNSPM],Ki,[1]; [14],5.6 µM
"CCNCCCCNCCCNCCCCNCC [DE(4,3,4)]",Ki,[1]; [14],4 µM
"CCNCCCNCCCNCCCN [MENSPM, N^1 -ethylnorspermine]",Ki,[1]; [14],7.7 µM
CC(C)NCCCNCCCNCCCNC(C)C [DIPNSPM],Ki,[1]; [14],40 µM
CCNCCCCNCCCCNCCCCNC(C)(C)C [ETBHSPM],Ki,[1]; [14],3 µM
"c1cc(NCCCNc2ccncc2)ccn1 [PYR(3,3,3)]",protonation state,[9],terminal dication
same,Ki,[1]; [14],> 500 µM
NCCCCNCCCCN [HSPD],Ki,[1]; [10],3.5 µM
"CCNCCCCNCCCCNCCCCN [MEHSPM, N^1 -ethylhomospermine]",Ki,[1]; [14],1.1 µM
CNCCCNCCCCNCCCNC [DMSPM],Ki,[1]; [14],1.1 µM
"c1cc(CNCCCCNCc2ccncc2)ccn1 [PYR(4,4,4)]",protonation state,[9],almost exclusively in the form of the internal dication
same,Ki,[1]; [14],> 500 µM
"CCNCCCNCCCNCCCNCC [DENSPM, Diethylnorspermine]",anti-diarrheal activity,[2]; 40 mg/kg,far less active than the homospermine compounds
same,stool output / diarrhea during 6 hour assay (FIG. 8),[2],became diarrheal during the 6 hour assay
same,LD50,[5],325 mg/kg
same,Ki,[1]; [14],17 µM
CC(C)(C)NCCCCNCCCCNCCCCNC(C)(C)C [DTBHSPM],Ki,[1]; [14],56 µM
CCNCCCNCCCCN [N^1 -MESPD],Ki,[1]; [10],8.6 µM
"C(CCNCCC1CCNCC1)CNCCC1CCNCC1 [PIP(5,4,5)]",Ki,[1]; [14],18.1 µM
"FC(F)(F)CNCCCNCCCCNCCCNCC(F)(F)F [FDESPM, N^1,N^12-bis(2,2,2-trifluoroethyl)spermine]",protonation state,[9],almost exclusively in the form of the internal dication
same,Ki,[1]; [14],285 µM
CCCNCCCNCCCNCCCNCCC [DPNSPM],anti-diarrheal activity,[2]; 15 mg/kg,far less active than the homospermine compounds
same,stool output / diarrhea during 6 hour assay (FIG. 8),[2],became diarrheal during the 6 hour assay
"NCCCNCCCN [NSPD, norspermidine]",Ki,[1]; [10],8.4 µM
CCNCCCCNCCCCNCC [DEHSPD],Ki,[1]; [10],115 µM
"NCCCCNCCCCNCCCCN [HSPM, homospermine]",stool output / diarrhea during 6 hour assay (FIG. 8),[2],became diarrheal during the 6 hour assay
